These results are taken from PMC12394552, “Multi-biological activity evaluation of Sn(П), Zn(П) and Fe(П) complexes based on thiocarbohydrazide schiff bases: synthesis, spectroscopic investigations and fluorescence studies” (Scientific Reports, 2025).

Each structure is given as a SMILES string. ≈ marks a conversion by molar mass, not a printed value. Where two headings read alike, the source gives them in different places. A value given as a limit tells only on which side of the number the result lay.

The test system of data set [1] is Escherichia coli ATCC 8739. The data set is described as follows: MIC determination, broth microdilution (EUCAST adapted). The data set is classed as cell-based. The following applies: ATCC8739, read-out: E. coli MIC value. How it is done: (§1) The compounds were tested against Gram-positive bacteria (Staphylococcus aureus ATCC 6538), Gram-negative bacteria (Escherichia coli ATCC 8739) and yeast (Candida albicansATCC10231). […] For bacterial strains, the EUCAST (2025) method was adapted. A few colonies of each bacterial culture previously grown on Mueller-Hinton agar for 24–48 h were suspended in normal saline and adjusted to 0.5 McFarland (1.5 × 10^8 CFU/mL). A 1/10 dilution was prepared in Mueller-Hinton broth (MHB) for the inoculation. In the wells of a 96-well flat-bottom microtiter plate, double serial dilutions of each compound were prepared in MHB. Each well was inoculated with the bacteria to achieve ca. 5 × 10^5 CFU/mL, and the plates were incubated at 37 °C overnight. Positive control (bacteria in culture medium only) and negative control (culture medium) were prepared. Each compound was tested in duplicate. After incubation, the plates were inspected visually for growth inhibition. To test the antimicrobial activity of DMSO, double serial dilutions of DMSO in broth medium were prepared and processed as the samples, but without the addition of the compounds. The antibacterial drug ciprofloxacin was used as a reference for comparison.
(§2) For Candida albicans, the same procedure applied to bacteria was used, except after inoculation, the plates were incubated at 35 °C for 24 h, and after incubation, the absorbance was measured at 530 nm using a plate reader. […] The absorbance of the wells was corrected by subtracting the absorbance of the blank. […] The antifungal drug fluconazole was used as a reference for comparison.
Background: In broth dilution the organism is exposed to a series of concentrations in liquid medium.

Data set [2] has as its system Staphylococcus aureus ATCC 6538. Described as above. The data set is classed as cell-based. The following applies: ATCC6538, read-out: S. aureus MIC value. How it is done:
as §1, §2

Data set [3] has as its system BT-549 invasive mammary malignancy. The data set is described as follows: SRB antiproliferative assay. The data set is classed as cell-based, human. The following applies: read-out: Cytotoxicity (as of %control) IC50 value, BT-549 invasive mammary malignancy. How it is done: (§3) All malignancy cell lines were cultured in high glucose DMEM (Bio Whittaker, Verviers, Belgium) containing 10% FBS, 4-(2-hydroxyethyl)-1-piperazineethanesulfonic acid (HEPES) Buffer (10 mM), L-glutamine (2 mM), gentamicin (50 µg/mL), penicillin (100 U/mL), and streptomycin sulfate ([…]) from Sigma (St. Luis, MO, USA) whereas Sulforhodamine B was from Santa Cruz Biotechnology (Inc. Texas, USA). Surviving cancer cell lines provide numerous advantages; they provide a pure and continuous supply of cells, thus overcoming any ethical barriers concerning human tissue usage, and are cost-effective. For cytotoxicity screening, adherent monolayers of all procured malignancies’ cell lines were examined. Periodontal ligament fibroblasts (PDL) were used to determine selective cytotoxicity.

Another data set concerns PC3 prostate malignancy. The data set is described as follows: SRB antiproliferative assay. Type of data set: cell-based, human. To be noted: read-out: Cytotoxicity (as of %Control) IC50 value, PC3 prostate malignancy. How it is done:
as §3

The test system of the next data set is A549 lung malignancy. Briefly: SRB antiproliferative assay. Type of data set: cell-based, human. To be noted: read-out: Cytotoxicity (as of %Control) IC50 value, A549 lung malignancy. How it is done: as §3
The next data set has as its system T47D mammary malignancy. The data set is described as follows: SRB antiproliferative assay. The data set is classed as cell-based, human. To be noted: read-out: Cytotoxicity (as of %control) IC50 value, T47D mammary malignancy. How it is done: as §3
(In general: In SRB staining, fixed cells bind dye roughly in proportion to their protein.)

Another data set has as its system Hela cervix malignancy. The data set is described as follows: SRB antiproliferative assay. The data set is classed as cell-based, human. The following applies: read-out: Cytotoxicity (as of %Control) IC50 value, Hela cervix malignancy. How it is done:
as §3

The subject of data set [4] is SW480 colorectal cancer cell line. Briefly: SRB antiproliferative assay. The data set is classed as cell-based, human. To be noted: read-out: Cytotoxicity (as of %control) IC50 value, SW480. How it is done:
as §3

Data set [5] relates to PANC1 pancreatic cell line. The data set is described as follows: SRB antiproliferative assay. Type of data set: cell-based, human. The following applies: read-out: Cytotoxicity (as of %control) IC50 value, PANC1. How it is done: as §3
The subject of data set [6] is MDA-MB-453 invasive mammary malignancy. The data set is described as follows: SRB antiproliferative assay. Type of data set: cell-based, human. To be noted: read-out: Cytotoxicity (as of %control) IC50 value, MDA-MB-453 invasive mammary malignancy. How it is done:
as §3

In a further data set the test system is MCF7 mammary malignancy. Briefly: SRB antiproliferative assay. The data set is classed as cell-based, human. To be noted: read-out: Cytotoxicity (as of %control) IC50 value, MCF7 mammary malignancy. How it is done:
as §3

Data set [7] concerns MDA-MB-231 invasive mammary malignancy. Briefly: SRB antiproliferative assay. The data set is classed as cell-based, human. To be noted: read-out: Cytotoxicity (as of %control) IC50 value, MDA-MB-231 invasive mammary malignancy. How it is done:
as §3

Data set [8] relates to Periodontal ligament fibroblasts (PDL). The data set is described as follows: SRB selective cytotoxicity in normal fibroblasts. The data set is classed as cell-based. How it is done: as §3
Data set [9] has as its system Candida albicans ATCC10231. Briefly: MIC determination, broth microdilution, absorbance 530 nm. To be noted: ATCC10231, 24 h, read-out: C. albicans MIC value at 50% inhibition. Type of data set: cell-based. How it is done:
as §1, §2

In a further data set the test system is RAW 264.7 macrophages. Briefly: SRB cytotoxicity on RAW 264.7 viability. Type of data set: cell-based. To be noted: Mus musculus, RAW264.7, read-out: RAW 264.7 viability IC50 value. How it is done: as §3
RAW 264.7 mouse macrophage cell line (ATCC® TIB-71) were cultured in high glucose DMEM supplemented with 10% (FBS), penicillin (100 U/mL), streptomycin (100 µg/mL), and L-glutamate (100 µg/mL) in a 37 °C humidified atmosphere with 95% air and 5% CO2. Confluent macrophages (2 × 10^5/well) were incubated with inflammation-priming lipopolysaccharide (LPS; Sigma, St. Luis, MO, USA) with either indomethacin as the reference agent[39] or treatment compounds at different concentrations (1.563-200 µM). Griess reagent was mixed with aliquots of cell culture media and incubated at R.T. for 10 min. Absorbance at 550 nm was determined using a microplate reader (Spectro Scan 80D UV-VIS spectrophotometer (Sedico Ltd., Nicosia, Cyprus). The nitrite concentration was determined by comparison with a sodium nitrite standard curve. SRB cytotoxicity protocol was performed for evaluation of the effect of the studied test compounds on RAW 264.7 viability.

Data set [10] concerns HT29 colorectal cancer cell line. Briefly: SRB antiproliferative assay. The data set is classed as cell-based. To be noted: Homo sapiens, HT-29, 72 h; read-out: Cytotoxicity (as of %control) IC50 value, HT29. How it is done: as §3
The test system of data set [11] is HCT116 colorectal cancer cell line. Briefly: SRB antiproliferative assay. Type of data set: cell-based. To be noted: Homo sapiens, HCT-116, 72 h; read-out: Cytotoxicity (as of %control) IC50 value, HCT116. How it is done:
as §3

Another data set deals with A375 skin melanoma. The data set is described as follows: SRB antiproliferative assay. The data set is classed as cell-based. The following applies: Homo sapiens, A-375, 72 h; read-out: Cytotoxicity (as of %Control) IC50 value, A375 skin melanoma. How it is done:
as §3

In a further data set the test system is U87 glioblastoma. The data set is described as follows: SRB antiproliferative assay. The data set is classed as cell-based. The following applies: Homo sapiens, 72 h, read-out: Cytotoxicity (as of %Control) IC50 value, U87 Gliobalstoma. How it is done: as §3
Data set [12] concerns CACO2 colorectal cancer cell line. The data set is described as follows: SRB antiproliferative assay. Type of data set: cell-based. The following applies: Homo sapiens, Caco-2, 72 h; read-out: Cytotoxicity (as of %control) IC50 value, CACO2. How it is done:
as §3

The subject of data set [13] is SW620 colorectal cancer cell line. Briefly: SRB antiproliferative assay. The data set is classed as cell-based. To be noted: Homo sapiens, SW-620, 72 h, read-out: Cytotoxicity (as of %control) IC50 value, SW620. How it is done:
as §3

Where [14] appears, read: 72 h incubations, 3.125-200µM range, mean ± SD n = 4.

With `O=C(O)c1cn(C2CC2)c2cc(N3CCNCC3)c(F)cc2c1=O` [Ciprofloxacin, reference compound], the MIC in data set [1] stood at 0.0008 µg/mL (≈ 0.00241 µM); in data set [2], 0.097 µg/mL (≈ 0.293 µM).
Consider `N.N.[Cl][Pt][Cl]` [Cisplatin, reference compound], for which the IC50 came out at 3.77 ± 0.25 µM in data set [3] (setting [14]); 12.5 ± 0.2 µM in the data set with PC3 prostate malignancy (setting [14]); 71.9 ± 2.9 µM in the data set on A549 lung malignancy (setting [14]); 34.2 ± 0.5 µM in the data set on T47D mammary malignancy (setting [14]); 27.3 ± 0.9 µM with Hela cervix malignancy (setting [14]); 8.92 ± 0.24 µM in data set [4] (setting [14]). Also, the IC50 in data set [5] (setting [14]) is 41.5 ± 0.4 µM; in data set [6] (setting [14]) it was 9.8 ± 0.1 µM; with MCF7 mammary malignancy (setting [14]) it was 31.6 ± 0.44 µM; in [7] (72 h incubations, 3.125-200 µM range, mean ± SD n = 4), 11.8 ± 1.4 µM; in [8] (SRB, normal PDL fibroblasts, unit printed for cisplatin cell and footnote), 5.6 µM.
Take `OC(Cn1cncn1)(Cn1cncn1)c1ccc(F)cc1F` [Fluconazole, reference compound]: in data set [9], the MIC was determined as 3.9 µg/mL (≈ 12.7 µM).
In the case of `COc1ccc2c(c1)c(CC(=O)O)c(C)n2C(=O)c1ccc(Cl)cc1` [Indomethacin, reference compound], in the data set with RAW 264.7 macrophages, the IC50 was more than 200 µM.
With `COc1ccccc1/C=N/NC(=S)N/N=C/c1ccccc1OC` [L1, 1,5-bis(2-methoxyanisaldehyde) thiocarbohydrazine], the IC50 in [10] is 42.1 ± 5.7 µM; in data set [11], 36.1 ± 1.9 µM; with A375 skin melanoma it was 41.7 ± 0.7 µM; with U87 glioblastoma, 29.5 ± 0.2 µM; in data set [12], 23.2 ± 0.6 µM; in [13], less than 3.12 µM. Also, the IC50 in data set [3] (Homo sapiens, BT-549, 72 h) came out at 46.4 ± 1.11 µM; with PC3 prostate malignancy (Homo sapiens, 72 h), 145 ± 1.5 µM; in the data set on A549 lung malignancy (Homo sapiens, A549, 72 h), 44.8 ± 1.8 µM; in the data set on T47D mammary malignancy (Homo sapiens, T47D, 72 h), 21.8 ± 1.2 µM; in the data set on Hela cervix malignancy (Homo sapiens, HeLa, 72 h), 44.8 ± 3.8 µM; in [4] (Homo sapiens, SW480, 72 h), 5.35 ± 0.25 µM. Moreover, the IC50 in data set [5] (Homo sapiens, PANC-1, 72 h) was 66.8 ± 0.2 µM; in data set [6] (Homo sapiens, MDA-MB-453, 72 h) it was 72.9 ± 3.4 µM; in the data set on MCF7 mammary malignancy (Homo sapiens, MCF7, 72 h), 52.4 ± 5.25 µM; in data set [7] (Homo sapiens, MDA-MB-231, 72 h), 29.2 ± 3.8 µM; in the data set on RAW 264.7 macrophages, more than 200 µM; in data set [8] (Fibroblast) it was more than 200 µM. Also, the MIC in data set [9] worked out at 31.3 µg/mL (≈ 91.4 µM); in data set [1] it was 31.3 µg/mL (≈ 91.4 µM); in [2] it was 15.6 µg/mL (≈ 45.6 µM).

In general, MIC refers to the lowest concentration found to suppress growth. What is called IC50 is the midpoint of a concentration-inhibition curve.
